# Data taken from patent US20050112058A1, “Auger effect-based cancer therapy method” (Ben-Gurion University of the Negev, priority 2002, published 2005).
# Like-named read-outs stand apart in the source and are kept apart here.
# How the values were obtained:
# DNA = settings: for Fluorescent Intensity: 7.5 μg DNA, 7.5 μl ethidium bromide buffer
# Procedure: A stock solution of 1.26 μM ethidium bromide containing 2 mM HEPES, 8 mM sodium chloride and 0.05 mM EDTA (pH=7) was prepared.
# B16 melanoma = settings: 40 mg/kg intraperitoneal, samples up to 72 hours after injection, compared with TCA-insoluble fraction
# Procedure: Tissue samples were taken up to 72 hours after the injection. The samples were treated with trichloroacetic acid (TCA), such that the TCA-insoluble fraction contained the DNA and high molecular weight proteins, and the TCA-soluble fraction contained the cytoplasmic and membrane components of the cells. Inductively-coupled plasma mass spectrometry (ICP-MS) was used to measure the concentration of indium ions in the TCA-insoluble and TCA-soluble fractions.
# [1] = system: KHJJ murine mammary carcinoma tumors; test: Auger electron therapy: tumor volume after 103Pd brachytherapy seed implantation with or without PtTMPyP(4); type: in vivo, BALB/C mice; settings: for Tumor volume, mm^3 ± standard error, Auger Electron Therapy: 103 Pd seeds in combination with PtTMPyP(4): with 103Pd seeds
# Procedure: General description. On day 0, after measurements of the length, width and height of the tumors, palladium-103 brachytherapy seeds were implanted into 12 KHJJ murine mammary carcinoma tumors borne on the thighs of 12 BALB/C mice. Twenty-four hours after seed implantation, 40 mg/kg, platinum (II)-tetrakis(N-methyl-4-pyridyl) porphyrin [PtTMPyP(4)], in the form of its chloride salt, was administered i.p. as a single bolus injection of 200 μl to the six mice undergoing AET. Tumor volume measurements were obtained two to three times weekly. Drug was also administered on days 5 (30 mg/kg), and 19 (20 mg/kg) following seed implantation.
# Tumor. Prior to the experiment, tumors were excised from the donor mouse in a sterile environment, and fragmented into 1-2 mm sections in a Petri dish. After anesthetizing each mouse with ketamine/xylazine (10:1), a small slit was prepared through the skin on the thigh, ˜5 mm above and lateral to the distal femur of the right knee. To assure subcutaneous implantation of the tumor fragment, a magnifying glass with a fluorescent light was used to observe the sheen on the fascia surrounding the three sides of the ‘pocket’ produced by the slit. An 18 gauge trochar, into whose bevel a tumor fragment had been inserted, was positioned into the ‘pocket’. A stylette was used to push the fragment into the ‘pocket’. Tumors were implanted either 12 or 15 days prior to the experiment. Upon verification of tumor growth, those tumors of adequate size to accommodate the seed implant, were randomized into treatment groups (AET or radiation only) using a coin flip.
# Measurements of tumor volume. Using a digital caliper, the length, width, and height of the tumors were measured. Being ellipsoid in their growth pattern, tumor volume was determined according to the formula, […].
# Seed implantation. On day 0, after weighing the mice and measuring the length, width and height of the tumors, palladium-103 brachytherapy seeds (˜2.2 mCi in activity; Theragenics) were implanted into the thigh tumors as follows. The anesthetized mouse was positioned on a board whose angle was ˜45°. The tumor bearing leg was inserted through an elastic band, secured through the board. The foot was taped to the board. An 18 gauge trochar with a funnel head that was supported by a brace on a ring stand, was inserted into the center to the tumor. The seed, previously sterilized by dipping in ETOH, rinsing in a sterile PBS solution, and air-dried, was placed in the funnel of the trochar using long-nosed forceps. A stylette was used to insert the seed into the tumor, after which the trochar was withdrawn from the tumor and Neosporin was applied to the wound.
# Drug delivery. The day after seed implantation (day 1), 40 mg/kg of PtTMPyP(4), in the form of its chloride salt, was administered intraperitoneally to the mice in the AET treatment group. On day 5, […] of PtTMPyP(4) was injected i.p., and on day 19, a dosage of 20 mg/kg was injected i.p.
structure (smiles),measurement,setting,value
C[n+]1ccc(-c2c3nc(c(-c4cc[n+](C)cc4)c4ccc([n-]4)c(-c4cc[n+](C)cc4)c4nc(c(-c5cc[n+](C)cc5)c5ccc2[n-]5)C=C4)C=C3)cc1.[In+3] [In^3+-tetra(N-methyl-4-pyridyl)-porphyrin],Fluorescent Intensity,DNA; 0.25 μg complex,85%
same,Fluorescent Intensity,DNA; 0.50 μg complex,73%
same,Fluorescent Intensity,DNA; 0.75 μg complex,63%
same,Fluorescent Intensity,DNA; 1.00 μg complex,54%
same,Fluorescent Intensity,DNA; 1.25 μg complex,47%
same,Fluorescent Intensity,DNA; 1.50 μg complex,41%
same,Fluorescent Intensity,DNA; 1.75 μg complex,35%
same,Fluorescent Intensity,DNA; 2.00 μg complex,30%
same,Fluorescent Intensity,DNA; 2.25 μg complex,26%
same,Fluorescent Intensity,DNA; 2.50 μg complex,22%
same,Fluorescent Intensity,DNA; 2.75 μg complex,19%
same,Fluorescent Intensity,DNA; 3.00 μg complex,16%
same,Fluorescent Intensity,DNA; 3.25 μg complex,13.4%
same,Fluorescent Intensity,DNA; 3.50 μg complex,12%
same,Fluorescent Intensity,DNA; 3.75 μg complex,10%
same,Fluorescent Intensity,DNA; 4.00 μg complex,9%
same,binding to DNA by displacement of ethidium bromide (in words),"DNA; fluorescence decreases with increasing complex concentration, FIG. 2",displaces the ethidium bromide and becomes bound to the DNA
same,number of indium ions per cell in the TCA-soluble fraction (cytoplasmic and membrane components),B16 melanoma,lesser amount
"CN1C=CC(c2c3nc(c(C4=CCN(C)C=C4)c4ccc([nH]4)c(C4=CCN(C)C=C4)c4nc(c(C5=CCN(C)C=C5)c5ccc2[nH]5)C=C4)C=C3)=CC1.[Pt+2] [PtTMPyP(4), platinum (II)-tetrakis(N-methyl-4-pyridyl) porphyrin]",effect on tumor growth compared with radiation alone or no treatment (in words),"[1]; AET group, FIG. 4, mean tumor volume",significant delay in tumor control
same,"Tumor volume, mm^3 ± standard error, Auger Electron Therapy: 103 Pd seeds in combination with PtTMPyP(4)",[1]; day 0 post seed implantation (before first drug dose),117.5 ± 18.6 mm^3
same,"Tumor volume, mm^3 ± standard error, Auger Electron Therapy: 103 Pd seeds in combination with PtTMPyP(4)","[1]; day 3 post seed implantation, i.p. 40 mg/kg day 1, 30 day 5, 20 day 19",112.8 ± 15.3 mm^3
same,"Tumor volume, mm^3 ± standard error, Auger Electron Therapy: 103 Pd seeds in combination with PtTMPyP(4)","[1]; day 5 post seed implantation, i.p. 40 mg/kg day 1, 30 day 5, 20 day 19",110.6 ± 25.7 mm^3
same,"Tumor volume, mm^3 ± standard error, Auger Electron Therapy: 103 Pd seeds in combination with PtTMPyP(4)","[1]; day 7 post seed implantation, i.p. 40 mg/kg day 1, 30 day 5, 20 day 19",121.5 ± 29.4 mm^3
same,"Tumor volume, mm^3 ± standard error, Auger Electron Therapy: 103 Pd seeds in combination with PtTMPyP(4)","[1]; day 9 post seed implantation, i.p. 40 mg/kg day 1, 30 day 5, 20 day 19",123.1 ± 26.9 mm^3
same,"Tumor volume, mm^3 ± standard error, Auger Electron Therapy: 103 Pd seeds in combination with PtTMPyP(4)","[1]; day 12 post seed implantation, i.p. 40 mg/kg day 1, 30 day 5, 20 day 19",150.7 ± 31.5 mm^3
same,"Tumor volume, mm^3 ± standard error, Auger Electron Therapy: 103 Pd seeds in combination with PtTMPyP(4)","[1]; day 15 post seed implantation, i.p. 40 mg/kg day 1, 30 day 5, 20 day 19",116.5 ± 44.9 mm^3
same,"Tumor volume, mm^3 ± standard error, Auger Electron Therapy: 103 Pd seeds in combination with PtTMPyP(4)","[1]; day 19 post seed implantation, i.p. 40 mg/kg day 1, 30 day 5, 20 day 19",175.6 ± 69.2 mm^3
same,"Tumor volume, mm^3 ± standard error, Auger Electron Therapy: 103 Pd seeds in combination with PtTMPyP(4)","[1]; day 21 post seed implantation, i.p. 40 mg/kg day 1, 30 day 5, 20 day 19",200.1 ± 81.9 mm^3
same,"Tumor volume, mm^3 ± standard error, Auger Electron Therapy: 103 Pd seeds in combination with PtTMPyP(4)","[1]; day 23 post seed implantation, i.p. 40 mg/kg day 1, 30 day 5, 20 day 19",232.6 ± 91.2 mm^3
same,"Tumor volume, mm^3 ± standard error, Auger Electron Therapy: 103 Pd seeds in combination with PtTMPyP(4)","[1]; day 27 post seed implantation, i.p. 40 mg/kg day 1, 30 day 5, 20 day 19",280.2 ± 90.6 mm^3
same,factor between mean tumor volume with seeds only and with seeds plus drug,"[1]; day 32, 103Pd seeds alone versus 103Pd seeds plus PtTMPyP(4)",5
same,"Tumor volume, mm^3 ± standard error, Auger Electron Therapy: 103 Pd seeds in combination with PtTMPyP(4)","[1]; day 32 post seed implantation, i.p. 40 mg/kg day 1, 30 day 5, 20 day 19, 40 mg/kg",356.2 ± 133.9 mm^3
